Test results as given in ChEMBL document CHEMBL6078707, “Preferential Synaptic Type of GABA-A Receptor Ligands Enhancing Neuronal Survival and Facilitating Functional Recovery After Ischemic Stroke” (J Med Chem, 2024).

What was measured:
[1] = Thermodynamic solubility of compound in phosphate buffer at pH 7.4 at 2 mg measured after 24 hrs by HPLC analysis; assay type: physicochemical; settings: read-out: Therm_solubility
[2] = Permeability of compound in PBS buffer at pH7.4 at 100 uM incubated for 5 hrs by UPLC-MS based PAMPA assay; assay type: ADME; settings: pH 7.4, read-out: permeability
[3] = AUC (0 to t) in male Sprague-Dawley rat brain at 3 mg/kg, ip measured after 480 mins by LC-ESI/MS-MS analysis; assay type: ADME, organism-based; settings: in vivo, 8 h
[4] = Clearance in male Sprague-Dawley rat at 5 mg/kg, ip measured after 480 mins by LC-ESI/MS-MS analysis; assay type: ADME, organism-based; settings: in vivo
[5] = Permeability across apical to basolateral side in MDCKII-MDR1 cells at pH 7.4; assay type: ADME, cell-based, Canis lupus familiaris; settings: dog, MDCK-MDR1, pH 7.4; read-out: permeability
[6] = Drug distribution in MCAO-reperfusion induced male Sprague-Dawley rat brain at 1.5 mg/kg, ip administered once daily for 3 days starting from 1.5 hrs post reperfusion by DESI mass spectrometric imaging analysis; assay type: ADME, organism-based; settings: in vivo, 72 h, time 3 day
[7] = Tmax in male Sprague-Dawley rat brain at 3 mg/kg, ip measured after 480 mins by LC-ESI/MS-MS analysis; assay type: ADME, organism-based
[8] = Terminal half-life in male Sprague-Dawley rat at 5 mg/kg, ip measured after 480 mins by LC-ESI/MS-MS analysis; assay type: ADME, organism-based; settings: in vivo, read-out: beta t1/2
[9] = Permeability across basolateral to apical side in MDCKII-MDR1 cells at pH 7.4; assay type: ADME, cell-based, Canis lupus familiaris; settings: dog, MDCK-MDR1, pH 7.4
[10] = MRT in male Sprague-Dawley rat brain at 3 mg/kg, iv measured after 480 mins by LC-ESI/MS-MS analysis; assay type: ADME, organism-based
[11] = Cmax in male Sprague-Dawley rat at 5 mg/kg, ip measured after 480 mins by LC-ESI/MS-MS analysis; assay type: ADME, organism-based; settings: in vivo
[12] = Terminal half-life in male Sprague-Dawley rat brain at 3 mg/kg, iv measured after 480 mins by LC-ESI/MS-MS analysis; assay type: ADME, organism-based; settings: read-out: beta t1/2
[13] = Terminal half-life in male Sprague-Dawley rat plasma at 3 mg/kg, ip measured after 480 mins by LC-ESI/MS-MS analysis; assay type: ADME, organism-based; settings: read-out: beta t1/2
[14] = Unbound drug concentration in male Sprague-Dawley rat brain at 3 mg/kg, ip measured after 480 mins by LC-ESI/MS-MS analysis; assay type: ADME, organism-based; settings: in vivo, 8 h
[15] = Unbound drug concentration in male Sprague-Dawley rat plasma at 3 mg/kg, ip measured after 480 mins by LC-ESI/MS-MS analysis; assay type: ADME, organism-based; settings: in vivo, 8 h
[16] = MRT in male Sprague-Dawley rat at 5 mg/kg, ip measured after 480 mins by LC-ESI/MS-MS analysis; assay type: ADME, organism-based; settings: in vivo
[17] = Metabolic stability in human liver microsomes assessed as half-life; assay type: ADME, Microsome
[18] = AUC (0 to t) in male Sprague-Dawley rat plasma at 3 mg/kg, iv measured after 480 mins by LC-ESI/MS-MS analysis; assay type: ADME, organism-based; settings: in vivo, 8 h
[19] = Volume of distribution in male Sprague-Dawley rat at 5 mg/kg, ip measured after 480 mins by LC-ESI/MS-MS analysis; assay type: ADME, organism-based; settings: in vivo, 8 h
[20] = Cmax in male Sprague-Dawley rat brain at 3 mg/kg, ip measured after 480 mins by LC-ESI/MS-MS analysis; assay type: ADME, organism-based
[21] = MRT in male Sprague-Dawley rat plasma at 3 mg/kg, iv measured after 480 mins by LC-ESI/MS-MS analysis; assay type: ADME, organism-based
[22] = Terminal half-life in male Sprague-Dawley rat plasma at 3 mg/kg, iv measured after 480 mins by LC-ESI/MS-MS analysis; assay type: ADME, organism-based; settings: read-out: beta t1/2
[23] = Cmax in male Sprague-Dawley rat plasma at 3 mg/kg, ip measured after 480 mins by LC-ESI/MS-MS analysis; assay type: ADME, organism-based
[24] = Cmax in male Sprague-Dawley rat brain at 3 mg/kg, iv measured after 480 mins by LC-ESI/MS-MS analysis; assay type: ADME, organism-based
[25] = Terminal half-life in male Sprague-Dawley rat brain at 3 mg/kg, ip measured after 480 mins by LC-ESI/MS-MS analysis; assay type: ADME, organism-based; settings: read-out: beta t1/2
[26] = MRT in male Sprague-Dawley rat brain at 3 mg/kg, ip measured after 480 mins by LC-ESI/MS-MS analysis; assay type: ADME, organism-based
[27] = Metabolic stability in human liver microsomes assessed as intrinsic clearance; assay type: ADME, Microsome; settings: read-out: CLH
[28] = MRT in male Sprague-Dawley rat plasma at 3 mg/kg, ip measured after 480 mins by LC-ESI/MS-MS analysis; assay type: ADME, organism-based
[29] = Volume of distribution in male Sprague-Dawley rat plasma at 3 mg/kg, iv measured after 480 mins by LC-ESI/MS-MS analysis; assay type: ADME, organism-based
[30] = Drug metabolism in human liver microsomes assessed as hydroxylation mediated metabolite formation by LCMS analysis; assay type: ADME, Microsome
[31] = Tmax in male Sprague-Dawley rat plasma at 3 mg/kg, ip measured after 480 mins by LC-ESI/MS-MS analysis; assay type: ADME, organism-based
[32] = Clearance in male Sprague-Dawley rat plasma at 3 mg/kg, iv measured after 480 mins by LC-ESI/MS-MS analysis; assay type: ADME, organism-based
[33] = AUC (0 to t) in male Sprague-Dawley rat plasma at 3 mg/kg, ip measured after 480 mins by LC-ESI/MS-MS analysis; assay type: ADME, organism-based
[34] = AUC (0 to t) in male Sprague-Dawley rat at 5 mg/kg, ip measured after 480 mins by LC-ESI/MS-MS analysis; assay type: ADME, organism-based; settings: in vivo
[35] = Tmax in male Sprague-Dawley rat brain at 3 mg/kg, iv measured after 480 mins by LC-ESI/MS-MS analysis; assay type: ADME, organism-based
[36] = AUC (0 to t) in male Sprague-Dawley rat brain at 3 mg/kg, iv measured after 480 mins by LC-ESI/MS-MS analysis; assay type: ADME, organism-based; settings: in vivo, 8 h
[37] = Half-life in male Sprague-Dawley rat at 5 mg/kg, ip by HPLC analysis; assay type: ADME, organism-based; settings: in vivo
[38] = Half-life in human plasma; assay type: ADME, cell-free

## Cc1ccc2nc(-c3ccc(F)cc3)c(CC(=O)N3CCOCC3)n2n1.O=C(O)C(O)C(O)C(=O)O
[1]
  solubility thermodynamic at 24 h: 1590 µg/mL
[2]
  Papp at 5 h, 100 µM: 9.99 ×10⁻⁶ cm/s

## Cc1ccc2nc(-c3ccc(F)cc3)c(CC(=O)N3CCCC3)n2n1.O=C(O)C(O)C(O)C(=O)O
[2]
  Papp at 5 h, 100 µM: 22.9 ×10⁻⁶ cm/s

## COc1ccc(NC(=O)Cc2c(-c3ccc(F)cc3)nc3ccc(C)cn23)cc1.O=C(O)C(O)C(O)C(=O)O
[2]
  Papp at 5 h, 100 µM: 1.03 ×10⁻⁶ cm/s

## COc1ccc(NC(=O)Cc2c(-c3ccc(F)cc3)nc3ccc(C)nn23)cc1.O=C(O)C(O)C(O)C(=O)O
[1]
  solubility thermodynamic at 24 h: 130 µg/mL
[2]
  Papp at 5 h, 100 µM: 433 ×10⁻⁶ cm/s

## Cc1ccc2nc(-c3ccc(F)cc3)c(CC(=O)Nc3ccccc3)n2c1.O=C(O)C(O)C(O)C(=O)O
[2]
  Papp at 5 h, 100 µM: 5.29 ×10⁻⁶ cm/s

## Cc1ccc2nc(-c3ccc(F)cc3)c(CC(=O)Nc3ccccc3F)n2c1.O=C(O)C(O)C(O)C(=O)O
[2]
  Papp at 5 h, 100 µM: 6.25 ×10⁻⁶ cm/s

## Cc1ccc2nc(-c3ccc(F)cc3)c(CC(=O)Nc3ccc(F)cc3)n2c1.O=C(O)C(O)C(O)C(=O)O
[2]
  Papp at 5 h, 100 µM: 6.06 ×10⁻⁶ cm/s

## Cc1ccc2nc(-c3ccc(F)cc3)c(CC(=O)N3CCSCC3)n2n1.O=C(O)C(O)C(O)C(=O)O
[1]
  solubility thermodynamic at 24 h: 320 µg/mL
[2]
  Papp at 5 h, 100 µM: 11.7 ×10⁻⁶ cm/s

## Cc1ccc2nc(-c3ccc(F)cc3)c(CC(=O)N(C)C)n2n1.O=C(O)C(O)C(O)C(=O)O
[1]
  solubility thermodynamic at 24 h: > 2000 µg/mL
[2]
  Papp at 5 h, 100 µM: 9.79 ×10⁻⁶ cm/s

## Cc1ccc2nc(-c3ccc(F)cc3)c(CC(=O)N3CCCC3)n2c1.O=C(O)C(O)C(O)C(=O)O
[3]
  AUCt: 8229 ng·min/g
[4]
  CL/F: 2.35 mL/min
[5]
  Papp A→B: 55.6 ×10⁻⁶ cm/s
[6]
  Drug uptake: Active
[7]
  Tmax: 5 min
[8]
  half-life: 30.6 min
[9]
  Papp B→A: 29.7 ×10⁻⁶ cm/s
[10]
  MRT: 65.5 min
[11]
  Cmax: 2340 ng/mL
[12]
  half-life: 135 min
[13]
  half-life: 270 min
[14]
  Cp(f): 348.03 nM
[15]
  Drug uptake(free): 2482.75 nM
[16]
  MRT: 27.6 min
[17]
  half-life: 176 min
[18]
  AUCt: 538253 ng·min/g
[19]
  Vd: 0.104 L/kg
[20]
  Cmax: 220 ng/g
[21]
  MRT: 39.7 min
[22]
  half-life: 47.8 min
[23]
  Cmax: 4500 ng/mL
[24]
  Cmax: 445 ng/g
[25]
  half-life: 653 min
[26]
  MRT: 102 min
[27]
  microsomal CLint: 9.8 µL/min/mg
[28]
  MRT: 50.9 min
[29]
  Vd: 0.383 L/kg
[30]
  Drug metabolism: metabolite_detected
[1]
  solubility thermodynamic at 24 h: 1870 µg/mL
[31]
  Tmax: 5 min
[32]
  clearance: 5.56 mL/min/kg
[33]
  AUC(0-t) at 8 h: 2140 ng·h/mL
[34]
  AUC(0-t) at 8 h: 39 ng·h/mL
[2]
  Papp at 5 h, 100 µM: 29.7 ×10⁻⁶ cm/s
[35]
  Tmax: 5 min
[36]
  AUCt: 15265 ng·min/g

## Cn1c(=O)c2c(ncn2C)n(C)c1=O [CAFFEINE]
[2]
  Papp at 5 h, 100 µM: 15.2 ×10⁻⁶ cm/s

## CCN1CCCC1CNC(=O)c1cc(S(N)(=O)=O)ccc1OC (stereo not given) [SULPIRIDE]
[2]
  Papp at 5 h, 100 µM: 0.016 ×10⁻⁶ cm/s

## Cc1ccc(-c2nc3ccc(C)cn3c2CC(=O)N(C)C)cc1.Cc1ccc(-c2nc3ccc(C)cn3c2CC(=O)N(C)C)cc1.O=C(O)C(O)C(O)C(=O)O [ZOLPIDEM TARTRATE]
[2]
  Papp at 5 h, 100 µM: 21.6 ×10⁻⁶ cm/s

## Cc1ccc(-c2nc3ccc(C)cn3c2CC(=O)N(C)C)cc1 [ZOLPIDEM]
[37]
  half-life: 30.6 min
[38]
  half-life: 120 min
[1]
  solubility thermodynamic at 24 h: > 2000 µg/mL
